Values quoted from earlier work as cited in article PMC8025584, “Identification of multipotent drugs for COVID-19 therapeutics with the evaluation of their SARS-CoV2 inhibitory activity” (Computational and Structural Biotechnology Journal, 2021).
Where a name gives a salt, the structure may show the parent alone. Read-outs that look alike come from different tables or passages of the source.

Tested on: differentially expressed human proteins in COVID-19
Conditions: cited from earlier work
[1] = gene HCK, drug-gene interaction listed in DGIdb export, ref DGIdb
[2] = gene CACNA1A, drug-gene interaction listed in DGIdb export, ref DGIdb

NS(=O)(=O)c1cc2c(cc1Cl)NC(C1CC3C=CC1C3)NS2(=O)=O (stereo not shown) [CYCLOTHIAZIDE, reference compound]
interaction_types (gene CA1, ref DGIdb): inhibitor

CSCCNc1nc(SCCC(F)(F)F)nc2c1ncn2[C@@H]1O[C@H](COP(=O)(O)OP(=O)(O)C(Cl)(Cl)P(=O)(O)O)[C@@H](O)[C@H]1O [Cangrelor, reference compound]
interaction_types (gene P2RY13, ref DGIdb): antagonist

Nc1ccncc1 [DALFAMPRIDINE]
interaction_types (gene KCNH7, ref DGIdb): blocker

Cc1nc(Nc2ncc(C(=O)Nc3c(C)cccc3Cl)s2)cc(N2CCN(CCO)CC2)n1 [DASATINIB]
interaction_types (gene FGR, ref DGIdb): inhibitor | interaction_types [1]: inhibitor

CNC(=O)c1ccc(Nc2ncc(C(F)(F)F)c(NCc3nccnc3N(C)S(C)(=O)=O)n2)cc1 [DEFACTINIB]
interaction_types (gene PTK2B, ref DGIdb): inhibitor

COc1ccc2c(c1)[C@]13CCCC[C@@H]1[C@H](C2)N(C)CC3 [DEXTROMETHORPHAN]
interaction_types (gene CYBB, ref DGIdb): inhibitor

CC1=NS(=O)(=O)c2cc(Cl)ccc2N1 [DIAZOXIDE]
interaction_types (gene CA1, ref DGIdb): inhibitor

NS(=O)(=O)c1cc(Cl)c(Cl)c(S(N)(=O)=O)c1 [DICHLORPHENAMIDE]
interaction_types (gene CA1, ref DGIdb): inhibitor

CC(=O)O[C@@]12CO[C@@H]1C[C@H](O)[C@@]1(C)C(=O)[C@H](O)C3=C(C)[C@@H](OC(=O)[C@H](O)[C@@H](NC(=O)OC(C)(C)C)c4ccccc4)C[C@@](O)([C@@H](OC(=O)c4ccccc4)[C@H]21)C3(C)C [DOCETAXEL, reference compound]
interaction_types (gene TUBA4A, ref DGIdb): inhibitor

CC/C=C\C/C=C\C/C=C\C/C=C\C/C=C\C/C=C\CCC(=O)O [DOCONEXENT]
interaction_types (gene RXRB, ref DGIdb): activator

CCN[C@H]1C[C@H](C)S(=O)(=O)c2sc(S(N)(=O)=O)cc21 [DORZOLAMIDE]
interaction_types (gene CA1, ref DGIdb): inhibitor

COc1cc2nc(N3CCN(C(=O)C4COc5ccccc5O4)CC3)nc(N)c2cc1OC (stereo not shown) [DOXAZOSIN]
interaction_types (gene KCNH7, ref DGIdb): inhibitor

C[C@H]1c2cccc(O)c2C(=O)C2=C(O)[C@]3(O)C(=O)C(C(N)=O)=C(O)[C@@H](N(C)C)[C@@H]3[C@@H](O)[C@@H]21 [DOXYCYCLINE]
interaction_types (gene MMP8, ref DGIdb): inhibitor

CCCCc1oc2ccc(NS(C)(=O)=O)cc2c1C(=O)c1ccc(OCCCN(CCCC)CCCC)cc1 [DRONEDARONE HYDROCHLORIDE]
interaction_types (gene KCNJ2, ref DGIdb): blocker

CC/C(=C(\c1ccc(O)cc1)c1ccc(OCCNC)cc1)c1ccccc1 [ENDOXIFEN]
interaction_types (gene CYP19A1, ref DGIdb): inhibitor

Cn1cc(C2=C(c3cn(C)c4cc([N+](=O)[O-])ccc34)C(=O)NC2=O)c2ccccc21 [ENMD-981693]
interaction_types (gene FGR, ref DGIdb): inhibitor | interaction_types [1]: inhibitor

CNC[C@H](O)c1ccc(O)c(O)c1 [EPINEPHRINE]
interaction_types: agonist¦antagonist

C=C1C[C@@H]2CC[C@@]34C[C@H]5O[C@H]6[C@@H](O3)[C@H]3O[C@H](CC[C@@H]3O[C@H]6[C@H]5O4)CC(=O)C[C@@H]3[C@@H](OC)[C@@H](C[C@H](O)CN)O[C@H]3C[C@H]3O[C@@H](CC[C@@H]1O2)C[C@@H](C)C3=C [ERIBULIN MESYLATE]
interaction_types (gene TUBA4A, ref DGIdb): inhibitor

CCCCCC/C=C\CCCCCCCCCC(=O)N[C@H]1[C@H](OC[C@H]2O[C@H](OP(=O)(O)O)[C@H](NC(=O)CC(=O)CCCCCCCCCCC)[C@@H](OCCCCCCCCCC)[C@@H]2O)O[C@H](COC)[C@@H](OP(=O)(O)O)[C@@H]1OCC[C@@H](CCCCCCC)OC [ERITORAN TETRASODIUM]
interaction_types (gene LY96, ref DGIdb): antagonist

C#CC1(OC(N)=O)CCCCC1 [ETHINAMATE]
interaction_types: inhibitor

CCOc1ccc2nc(S(N)(=O)=O)sc2c1 [ETHOXZOLAMIDE]
interaction_types (gene CA1, ref DGIdb): inhibitor

CC(O)(P(=O)(O)O)P(=O)(O)O [ETIDRONIC ACID]
interaction_types (gene SLC25A4, ref DGIdb): inhibitor

CCOC(=O)/C=C(C)/C=C/C=C(C)/C=C/c1c(C)cc(OC)c(C)c1C [ETRETINATE]
interaction_types (gene RXRB, ref DGIdb): agonist

N#Cc1ccc(C2CCCc3cncn32)cc1 (stereo not shown) [FADROZOLE]
interaction_types: inhibitor

CCOc1ccc(-c2ccc(Cn3c(CC(C)(C)C(=O)O)c(SC(C)(C)C)c4cc(OCc5ccc(C)cn5)ccc43)cc2)cn1 [FIBOFLAPON]
interaction_types (gene ALOX5AP, ref DGIdb): inhibitor

COc1cc(Nc2ncc(F)c(Nc3ccc4c(n3)N(COP(=O)(O)O)C(=O)C(C)(C)O4)n2)cc(OC)c1OC [FOSTAMATINIB, reference compound]
interaction_types (gene EIF2AK2, ref DGIdb): inhibitor | interaction_types (gene FGR, ref DGIdb): inhibitor | interaction_types (gene GAK, drug-gene interaction listed in DGIdb export, ref DGIdb): inhibitor | interaction_types [1]: inhibitor | interaction_types (gene PTK2B, ref DGIdb): inhibitor | interaction_types (gene TAOK3, ref DGIdb): inhibitor

COc1ccc(/C=C\c2cc(OC)c(OC)c(OC)c2)cc1OP(=O)(O)O [FOS[…]]
interaction_types (gene TUBA4A, ref DGIdb): inhibitor

CC(OC(=O)NCC1(CC(=O)O)CCCCC1)OC(=O)C(C)C (stereo not shown) [GABAPENTIN ENACARBIL, reference compound]
interaction_types [2]: modulator

NCC1(CC(=O)O)CCCCC1 [GABAPENTIN, reference compound]
interaction_types [2]: modulator

C[C@]1(C(=O)N(CCCC(=O)O)Cc2cccc(Cl)c2)CCN1C(=O)c1csc2ccccc12 [GLPG-0974]
interaction_types (gene FFAR2, ref DGIdb): antagonist

O=c1nc(OC[C@@H]2COCCO2)cc2n1CCc1cc(C#CC3CC3)ccc1-2 [GLPG-1205]
interaction_types (gene GPR84, ref DGIdb): antagonist

N[C@@H](CCC(=O)N[C@@H](CS)C(=O)NCC(=O)O)C(=O)O [GLUTATHIONE]
interaction_types: cofactor

Cl.N=C(N)N [GUANIDINE HYDROCHLORIDE]
interaction_types (gene KCNH7, ref DGIdb): blocker

Nc1nc2nc[nH]c2c(=O)[nH]1 [GUANINE]
interaction_types (gene GCH1, ref DGIdb): inhibitor

CCS(=O)(=O)Nc1ccc2c(c1)/C(=C(/Nc1ccc(CN3CCCCC3)cc1)c1ccccc1)C(=O)N2 [HESPERADIN]
interaction_types [1]: inhibitor | interaction_types (gene PTK2B, ref DGIdb): inhibitor

NCCc1c[nH]cn1 [HISTAMINE]
interaction_types: activator

N[C@@H](Cc1c[nH]cn1)C(=O)O [HISTIDINE]
interaction_types (gene CA1, ref DGIdb): activator

NS(=O)(=O)c1cc2c(cc1Cl)NCNS2(=O)=O [HYDROCHLOROTHIAZIDE, reference compound]
interaction_types (gene CA1, ref DGIdb): inhibitor

NS(=O)(=O)c1cc2c(cc1C(F)(F)F)NCNS2(=O)=O [HYDROFLUMETHIAZIDE]
interaction_types (gene CA1, ref DGIdb): inhibitor

C=CC(=O)N1CCC[C@@H](n2nc(-c3ccc(Oc4ccccc4)cc3)c3c(N)ncnc32)C1 [IBRUTINIB]
interaction_types [1]: inhibitor

CCCCCCCN(CC)CCCC(O)c1ccc(NS(C)(=O)=O)cc1 (stereo not shown) [IBUTILIDE, reference compound]
interaction_types (gene KCNH7, ref DGIdb): inhibitor

Nc1ncc(-c2cnn(CCO)c2)c2scc(-c3ccc(NC(=O)Nc4cccc(F)c4)cc3)c12 [ILORASERTIB]
interaction_types (gene FGR, ref DGIdb): inhibitor | interaction_types [1]: inhibitor

CCC[C@@H](C)C[C@H](N)CC(=O)O [IMAGABALIN]
interaction_types [2]: modulator

Nc1cc(-c2ccncc2)c[nH]c1=O [INAMRINONE]
interaction_types (gene TNF, drug-gene interaction listed in DGIdb export, ref DGIdb): inhibitor

O=C(Nc1ccncc1)C(=O)c1cn(Cc2ccc(Cl)cc2)c2ccccc12 [INDIBULIN]
interaction_types (gene TUBA4A, ref DGIdb): inhibitor

O=C1Nc2ccccc2/C1=C1/Nc2ccccc2C1=O [INDIRUBIN]
interaction_types: substrate

CCc1c2c(nc3ccc(OC(=O)N4CCC(N5CCCCC5)CC4)cc13)-c1cc3c(c(=O)n1C2)COC(=O)[C@]3(O)CC [IRINOTECAN, reference compound]
interaction_types (gene ISG15, ref DGIdb): inhibitor

CC(/C=C/[C@@H]1C[C@]1(C)c1ccc2c(c1)C(C)(C)CCC2(C)C)=C\C(=O)O [IRX-4204]
interaction_types (gene RXRB, ref DGIdb): agonist

C/C(=C\c1csc(C)n1)[C@@H]1C[C@@H]2O[C@]2(C)CCC[C@H](C)[C@H](O)[C@@H](C)C(=O)C(C)(C)[C@@H](O)CC(=O)N1 [IXABEPILONE]
interaction_types (gene TUBA4A, ref DGIdb): inhibitor

Cc1oncc1C(=O)Nc1ccc(C(F)(F)F)cc1 [LEFLUNOMIDE]
interaction_types (gene PTK2B, ref DGIdb): antagonist

N#Cc1ccc(C(c2ccc(C#N)cc2)n2cncn2)cc1 [LETROZOLE]
interaction_types (gene CYP19A1, ref DGIdb): antagonist¦inhibitor

CCC[C@H](Nc1nc(-c2ccc(NC(=O)NCC)c(OC)c2)ncc1C)c1cccnc1 [LEXIBULIN]
interaction_types (gene TUBA4A, ref DGIdb): inhibitor

CN(C)C(=O)C(CCN1CCC(O)(c2ccc(Cl)cc2)CC1)(c1ccccc1)c1ccccc1 [LOPERAMIDE]
interaction_types [2]: inhibitor

CN(C)C(=N)N=C(N)N [METFORMIN]
interaction_types (gene PRKAB1, ref DGIdb): activator¦inducer

CC(=O)/N=c1/sc(S(N)(=O)=O)nn1C [METHAZOLAMIDE]
interaction_types (gene CA1, ref DGIdb): inhibitor

COc1ccccc1OCC(O)COC(N)=O (stereo not shown) [METHOCARBAMOL]
interaction_types (gene CA1, ref DGIdb): inhibitor

CN1C(CCl)Nc2cc(Cl)c(S(N)(=O)=O)cc2S1(=O)=O (stereo not shown) [METHYCLOTHIAZIDE]
interaction_types (gene CA1, ref DGIdb): inhibitor

C/C(=C\c1ccc(OCCN2CCOCC2)cc1)c1ccc2c(c1)C(C)(C)CCC2(C)C [MOFAROTENE]
interaction_types (gene RXRB, ref DGIdb): modulator

CN1CC[C@]23c4c5ccc(O)c4O[C@H]2[C@@H](O)C=C[C@H]3[C@H]1C5 [MORPHINE]
interaction_types: activator

O=C1C[C@@H](c2ccc(O)cc2)Oc2cc(O)cc(O)c21 [NARINGENIN]
interaction_types (gene CYP19A1, ref DGIdb): inhibitor

CCCc1c2oc(C(=O)O)cc(=O)c2cc2c(=O)cc(C(=O)O)n(CC)c12 [NEDOCROMIL, reference compound]
interaction_types (gene FPR1, ref DGIdb): antagonist

CN1CCC[C@H]1c1cccnc1 [NICOTINE]
interaction_types: inhibitor

COC(=O)c1ccc2c(c1)NC(=O)/C2=C(\Nc1ccc(N(C)C(=O)CN2CCN(C)CC2)cc1)c1ccccc1 [NINTEDANIB, reference compound]
interaction_types (gene FGR, ref DGIdb): inhibitor | interaction_types [1]: inhibitor
